Results reported in US20230348376A1 (TEIJIN PHARMA LIMITED, priority 2020, published 2023).

What was measured:
[1] = Evaluation of calcium increasing action in normal mice (serum calcium); type: in vivo, mouse; settings: for Serum calcium concentration: repeated oral once a day, 2 weeks, C57BL/6J mice; for Calcium concentration Fluctuation range: vs vehicle 8.9 mg/dL
Description: After acclimatizing C57BL/6J mice (7 weeks old, male) for 1 week, the mice were divided into groups of 5 mice based on the body weight, and administration of the compound or vehicle was started. The administration solution used was a compound (in ethanol) or ethanol diluted 100-fold with 0.1% Trion X-100 (SIGMA #X100-100ML)/saline, and the repeated oral administration at once a day was performed. After administration of 2 weeks, euthanasia was performed by collecting all blood under general anesthesia.

[2] = system: rat oligodendrocyte progenitor cells; test: Promotive activity of rat oligodendrocyte progenitor cell differentiation-2 (immunostaining of MBP); type: cell-based; settings: Test 3; vitamin D derivative 2 μM, T3 30 nM; 4 days
Outline: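 Vitamin D derivatives scored as symbols for promoting differentiation, read out by MBP immunostaining. OPCs taken from supernatant after about 22 h shaking (37 °C, 200 rpm) in separation medium.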

[3] = system: oligodendrocyte progenitor cells derived from VDR knockout mice; test: Oligodendrocyte progenitor cell differentiation using VDR knockout mice (MBP immunostaining); type: cell-based; settings: 1000 nM, 4 days, VDR KO mouse OPC
Description: The promotive activity of oligodendrocyte progenitor cell (OPC) differentiation of the vitamin D derivatives was evaluated by using oligodendrocyte progenitor cells derived from VDR knockout mice. (1) Collection of Neural Stem Cells from VDR KO Mouse […]
The oligodendrocyte progenitor cells derived from VDR KO mouse prepared were suspended in oligodendrocyte progenitor cell differentiation medium (2% B27 (Thermo Fisher Scientific #17504-044)/1% penicillin-streptomycin (Invitrogen #15140-122)/10 ng/mL CNTF (PeproTech #AF-450-13)/DMEM/F-12, no glutamine (Gibco #21331-020)), and were seeded on a 96-well plate coated with poly-L-ornithine (FUJIFILM Wako Pure Chemical Corporation #163-27421) under the condition of 2.0×10^4 cells/well. […] Subsequently, images of each well were acquired using a fluorescence microscope (KEYENCE CORPORATION #BZ-X800), the number of MBP-positive cells and Hoechst 33342-positive cells (total cells) were measured using an image analysis application (KEYENCE CORPORATION #BZ-X800 Analyzer), and then the ratio of number of MBP-positive cells/number of Hoechst33342-positive cells (total cells) was calculated, and then the ratio of those to the DMSO group was calculated as a result. […]

[4] = Evaluation of brain penetration in mice (blood and brain concentration at brain Cmax); type: in vivo, mouse; settings: 0.2 mg/kg single oral dose, C57BL/6J mice
Outline: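 Male C57BL/6J mice (8 weeks, n=3) dosed orally once at 1 […] mg/kg; plasma and brain collected at 0.25, 0.5, 1, 2, 4 and 8 h. Compound extracted with acetonitrile from brain homogenate and plasma, quantified by LC/MS/MS.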

SMILES: C[C@H](CN1CCOC[C@H]1C)[C@H]1CC[C@H]2/C(=C/C=C3C[C@@H](O)C[C@H](O)C3)CCC[C@]12C [Compound G005, (1R,3R)-5-(2-((1R,3aS,7aR,E)-7a-methyl-1-((S)-1-((R)-3-methylmorpholino)propan-2-yl)octahydro-4H-inden-4-ylidene)ethylidene)cyclohexane-1,3-diol]
- Serum calcium concentration ([1]; 20 μg/kg): 9.1 mg/dL
- Calcium concentration Fluctuation range ([1]; 20 μg/kg): 0.2 mg/dL
- Serum calcium concentration ([1]; 60 μg/kg): 9.1 mg/dL
- Calcium concentration Fluctuation range ([1]; 60 μg/kg): 0.2 mg/dL
- Serum calcium concentration ([1]; 200 μg/kg): 9.0 mg/dL
- Calcium concentration Fluctuation range ([1]; 200 μg/kg): 0.1 mg/dL
- Mean (number of MBP-positive cells/number of Hoechst33342-positive cells) [2]: 0.34
- Mean (ratio MBP-positive cells/Hoechst33342-positive cells, relative to the DMSO group = 100.0) [3]: 215.1
- Concentration in blood at brain Cmax ([4]; n=3): 84.1 ± 9.7 nM
- Concentration in brain at brain Cmax ([4]; n=3): 140.8 ± 17.6 pmol/g
- Kp ([4]; male, C57BL/6J, mouse, brain/plasma, po, 0.2 mg/kg, read-out: Concentration ratio in brain/in blood at brain Cmax): 1.67
